The values below come from patent publication US9044501B2, “Method of preventing and/or treating a neurodegenerative disease by administering an extract of Lycoris chejuensis and/or a compound isolated therefrom” (KOREA INSTITUTE OF SCIENCE AND TECHNOLOGY, priority 2009, dated 2015).

Molecules are shown by their SMILES. Where only a bound is given, the exact number is not on record here.

Data set [1] deals with β-amyloid (Aβ42) production. Nature of the data set: β-amyloid (Aβ42) production in APP-transfected HeLa cells, ELISA of culture solution. The format is cell-based, human. The protocol:
(§1) In order to examine the effect of the ethanol extract of Lycoris chejuensis obtained in Example <1-1> to inhibit β-amyloid production, HeLa cell line transfected with human amyloid precursor protein(APP) was cultured in DMEM culture medium (Cat. #11995, Gibco, USA). The cell line was supplied by Prof. Tae-Wan Kim, Department of Pathology, Columbia University Medical Center, New York, N.Y.10032, USA.
(§2) To the cell culture solution, the ethanol extract of Lycoris chejuensis (CJ) obtained in Example <1-1> was added, and then, it was cultured at 37° C. for 8 hours, and the amount of β-amyloid secreted in the culture solution was measured. More specifically, in order to quantify β-amyloid, two kinds of β-amyloid (Aβ40, Aβ42), Human β-Amyloid (Aβ40) and Human β-Amyloid (Aβ42) Colorimetric ELISA kits (#KHB3482 and #KHB3442; BioSource International, Inc., USA) were respectively used. The negative control means the case to which the extract of Lycoris chejuensis was not added.

Data set [2] has as its system β-amyloid (Aβ40) production. Kind of data set: β-amyloid (Aβ40) production in APP-transfected HeLa cells, ELISA of culture solution. It is filed as cell-based, human. The protocol: as §1, §2
Another data set concerns viable cells. Nature of the data set: MTT Cell Proliferation assay, effect on cell death. It is filed as cell-based. Here is the method:
In order to measure the effect of an extraction or a fraction of Lycoris chejuensis on cell death, MTT Cell Proliferation assay (ATCC catalog #30-1010K, Manassas, USA), which is a conventionally known method, was used. In particular, a cell was treated with various concentrations of an ethanol extract (CJ) of Lycoris chejuensis and a butanol fraction (CJ-3) of Lycoris chejuensis for 8 hours, and then, viable cells were quantified.

Data set [3] concerns β-amyloid (Aβ42) production. Nature of the data set: β-amyloid (Aβ42) production in APP-transfected HeLa cells, ELISA of culture solution. The format is cell-based, human. The settings on record: for Inhibition rate (%) of Aβ42 production compared to that of negative control: 8 hours.
The test system of data set [4] is β-amyloid (Aβ40) production. Nature of the data set: β-amyloid (Aβ40) production in APP-transfected HeLa cells, ELISA of culture solution. It is filed as cell-based, human. The settings on record: for Inhibition rate (%) of Aβ40 production compared to that of negative control: 8 hours.
In data set [5] the test system is β-secretase product (sAPPβ) production. Kind of data set: β-secretase product (sAPPβ) production in APP-transfected HeLa cells, sAPPβ-Wild Type Assay Kit. The settings on record: Homo sapiens, read-out: Inhibition rate (%) of sAPPβ production compared to negative control. The format is cell-based. The text has this: The cause of inhibition of β-amyloid production in the Experimental example <3> was examined in more detail. β-amyloid was produced from amyloid precursor(APP) by continuous actions of membrane protein hydrolytic enzyme, β-secretase (BACE1), and γ-secretase (Vassa and Citron, Neuron 27, 419-422, 2000). More specifically, β-secretase product(sAPPβ) is produced from amyloid precursor (APP) by the action of β-secretase, from which β-amyloid is produced by the action of γ-secretase.
Based on the above, it was identified whether or not dihydrolycoricidine obtained in Example <2-1> is capable of inhibiting the production of β-secretase product(sAPPβ). Specifically, the same procedure as Experimental example <3> was conducted except that sAPPβ-Wild Type Assay Kit (Immuno-Biological Laboratories Co., Ltd., Japan) was used for quantifying sAPPβ. The negative control means the case to which dihydrolycoricidine was not added.

Setting [6] is: 10, 5, 1, 0.5, 0.2, 0.1 and 0.05 μg/ml, 8 hours.
Where [7] appears, read: Homo sapiens, HeLa, 8 h, read-out: Inhibition rate (%) of Aβ42 production compared to that of negative control.
Setting [8] is: Homo sapiens, HeLa, 8 h, read-out: Inhibition rate (%) of Aβ40 production compared to that of negative control.

`COC1C=C2C3CN(Cc4cc5c(cc43)OCO5)C2CC1O` (stereo not shown) [2-methoxypancracine]: the “β-amyloid (Aβ42) production (FIG. 7)” value in data set [1] (setting [6]) is “inhibited by 2-methoxypancracine in a concentration dependent manner”. Besides, the “β-amyloid (Aβ40) production (FIG. 7)” value in data set [2] (setting [6]) is “inhibited by 2-methoxypancracine in a concentration dependent manner”. The compound further showed a cells died in the data set with viable cells (5 μg/ml (FIG. 11)) of at most 10%.
`O=C1NC2C(CC(O)C(O)C2O)c2cc3c(cc21)OCO3` (stereo not shown) [dihydrolycoricidine]: the inhibition at 5 µM in data set [3] (Homo sapiens, HeLa, 5 μM, read-out: Inhibition rate (%) of Aβ42 production compared to that of negative control) amounted to 58.8%; in data set [4] (Homo sapiens, HeLa, 5 μM, read-out: Inhibition rate (%) of Aβ40 production compared to that of negative control), 28.4%; in data set [5] (5 μM), 6%. Further, the inhibition at 10 µM in data set [3] (Homo sapiens, HeLa, 10 μM, read-out: Inhibition rate (%) of Aβ42 production compared to that of negative control) amounted to 63.8%; in data set [4] (Homo sapiens, HeLa, 10 μM, read-out: Inhibition rate (%) of Aβ40 production compared to that of negative control), 56.1%; in data set [5] (10 μM), 12%. Moreover, the inhibition at 25 µM in data set [3] (Homo sapiens, HeLa, 25 μM, read-out: Inhibition rate (%) of Aβ42 production compared to that of negative control) stood at 88.8%; in data set [4] (Homo sapiens, HeLa, 25 μM, read-out: Inhibition rate (%) of Aβ40 production compared to that of negative control) it was 59.8%; in data set [5] (25 μM) it was 28.9%. Moreover, the inhibition at 50 µM in data set [3] (Homo sapiens, HeLa, 50 μM, read-out: Inhibition rate (%) of Aβ42 production compared to that of negative control) worked out at 92.2%; in data set [4] (Homo sapiens, HeLa, 50 μM, read-out: Inhibition rate (%) of Aβ40 production compared to that of negative control) it was 63%; in data set [5] (50 μM), 36.1%. The compound further displayed a cells died with viable cells (50 μM) of at most 30%. Further, the “Cell death (%) compared to negative control” value (“Cell death (%)” for short) was 18.3% in the data set on viable cells (dihydrolycoricidine 5 μM), 23.3% in the data set on viable cells (dihydrolycoricidine 10 μM), 25.3% with viable cells (dihydrolycoricidine 25 μM) and 28.1% in the data set with viable cells (dihydrolycoricidine 50 μM).
Turning to `O=C1NC2C(=CC(O)C(O)C2O)c2cc3c(cc21)OCO3` (stereo not shown) [lycoricidine], the inhibition at 0.01 µg/mL in data set [1] (setting [7]) was found to be 16%; in data set [2] (setting [8]) it was 3.3%. Moreover, the results for the inhibition at 0.1 µg/mL in data set [1] (setting [7]) and in data set [2] (setting [8]) were 81.3% and 67%, respectively. Besides, the inhibition at 1 µg/mL was 97.5% in data set [1] (setting [7]) and 92.8% in data set [2] (setting [8]). Further, the inhibition at 10 µg/mL in data set [1] (setting [7]) is 100%; in data set [2] (setting [8]), 97.2%. The cells died in the data set with viable cells (10 μM (lycoricidine)) is at most 20%. Also, the “Cell death (%)” value in the data set on viable cells (8 h, 0.01 μg/ml) came out at 4.9%; in the data set on viable cells (8 h, 0.1 μg/ml), 11.3%; in the data set with viable cells (8 h, 1 μg/ml) it was 19.0%; in the data set on viable cells (8 h, 10 μg/ml), 21.1%.
Turning to `O=C1NC2C(=CC(O)C(O)C2O)c2cc3c(c(O)c21)OCO3` (stereo not shown) [lycoricidinol], the “Inhibition rate (%) of Aβ42 production compared to that of negative control” value in data set [3] (lycoricidinol 0.01 μg/ml) is 44.0%; in data set [3] (lycoricidinol 0.1 μg/ml), 97.0%; in data set [3] (lycoricidinol 1 μg/ml), 100%; in data set [3] (lycoricidinol 10 μg/ml), 100%. Moreover, the “Inhibition rate (%) of Aβ40 production compared to that of negative control” value is 25.0% in data set [4] (lycoricidinol 0.01 μg/ml), 90.4% in data set [4] (lycoricidinol 0.1 μg/ml), 97.8% in data set [4] (lycoricidinol 1 μg/ml) and 98.4% in data set [4] (lycoricidinol 10 μg/ml). This compound came in with a cells died in the data set with viable cells (10 μM (lycoricidinol)) of at most 20%. For the same compound, the “Cell death (%)” value with viable cells (lycoricidinol 0.01 μg/ml) was 10.3%; in the data set with viable cells (lycoricidinol 0.1 μg/ml) it was 11.6%; in the data set on viable cells (lycoricidinol 1 μg/ml), 16.5%; in the data set on viable cells (lycoricidinol 10 μg/ml), 19.3%.
